Laboratory results as given in ChEMBL document CHEMBL1201862, “PubChem BioAssay data set” (2004).
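Five concentrations, 48 hours, 96-well plates. GI50 = concentration required for 50% inhibition of growth.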 Activity calls are given as the source filed them. Cut-off read from the data, not from the text of the source: active = GI50 up to about 1.1 µM and inactive = higher.

Tests used:
Assay in all cases: growth of human tumour cells (NCI), 48 h
[1] = test system: K562
[2] = test system: T47D
[3] = test system: COLO 205
[4] = test system: RXF 393
[5] = test system: HL-60
[6] = test system: MDA-MB-435
[7] = test system: HCC 2998
[8] = test system: MOLT-4
[9] = test system: SR
[10] = test system: UACC-62
[11] = test system: U-251
[12] = test system: Hs-578T
[13] = test system: SF-539
[14] = test system: SK-MEL-5
[15] = test system: MDA-MB-231
[16] = test system: UACC-257
[17] = test system: Malme-3M
[18] = test system: UO-31
[19] = test system: RPMI-8226
[20] = test system: EKVX

Row | SMILES | GI50 [1] | GI50 [2] | GI50 [3] | GI50 [4] | GI50 [5] | GI50 [6] | GI50 [7] | GI50 [8] | GI50 [9] | GI50 [10] | GI50 [11] | GI50 [12] | GI50 [13] | GI50 [14] | GI50 [15] | GI50 [16] | GI50 [17] | GI50 [18] | GI50 [19] | GI50 [20]
1 | C=CCNC(=O)CN(CC(=O)O)C1CCCCC1N(CC(=O)O)CC(=O)O (centres undefined) | > 100 µM (inactive) | > 100 µM (inactive) | > 100 µM (inactive) | > 100 µM (inactive) | > 100 µM (inactive) | > 100 µM (inactive) | > 100 µM (inactive) | > 100 µM (inactive) | > 100 µM (inactive) | > 100 µM (inactive) | > 100 µM (inactive) | > 100 µM (inactive) | > 100 µM (inactive) | > 100 µM (inactive) | > 100 µM (inactive) | > 100 µM (inactive) | > 100 µM (inactive) | > 100 µM (inactive) | > 100 µM (inactive) | 
2 | O=C(O)CSc1ccc([N+](=O)[O-])cc1[N+](=O)[O-] | > 100 µM (inactive) | > 100 µM (inactive) |  | > 100 µM (inactive) | > 100 µM (inactive) | > 100 µM (inactive) | > 100 µM (inactive) |  | > 100 µM (inactive) | > 100 µM (inactive) | > 100 µM (inactive) | > 100 µM (inactive) |  |  | > 100 µM (inactive) | > 100 µM (inactive) | > 100 µM (inactive) | > 100 µM (inactive) | > 100 µM (inactive) | > 100 µM (inactive)
3 | COC(=O)c1ccc(/C=C2\Cc3ccccc3C2=O)cc1 | > 100 µM (inactive) | > 100 µM (inactive) | > 100 µM (inactive) | > 100 µM (inactive) | > 100 µM (inactive) | > 100 µM (inactive) | > 100 µM (inactive) | > 100 µM (inactive) | > 100 µM (inactive) | > 100 µM (inactive) | > 100 µM (inactive) | > 100 µM (inactive) | > 100 µM (inactive) | > 100 µM (inactive) | > 100 µM (inactive) | > 100 µM (inactive) |  | > 100 µM (inactive) | > 100 µM (inactive) | > 100 µM (inactive)
4 | C[C@H]1C[C@H]2[C@@H]3CCC4=CC(=O)C=C[C@]4(C)C3=CC[C@]2(C)[C@@]1(O)C(=O)CO | > 100 µM (inactive) | 69.8 µM (inactive) | > 100 µM (inactive) | > 100 µM (inactive) | 42 µM (inactive) | > 100 µM (inactive) | > 100 µM (inactive) | 64 µM (inactive) | 37.7 µM (inactive) | > 100 µM (inactive) | > 100 µM (inactive) | > 100 µM (inactive) |  | 83.4 µM (inactive) | > 100 µM (inactive) | > 100 µM (inactive) | > 100 µM (inactive) | > 100 µM (inactive) | 37.2 µM (inactive) | 50.6 µM (inactive)
5 | C=C1C(=O)O[C@H]2[C@H]3O[C@@H](C[C@@H]12)[C@@]1(C)CC[C@H](O1)[C@H](C)CCC[C@H]3C | 1.44 µM (inactive) | 2.21 µM (inactive) | 1.75 µM (inactive) | 2.15 µM (inactive) | 0.237 µM (active) | 1.32 µM (inactive) | 1.28 µM (inactive) | 1.23 µM (inactive) | 0.148 µM (active) | 1.81 µM (inactive) | 1.5 µM (inactive) | 2.64 µM (inactive) |  | 1.42 µM (inactive) | 1.65 µM (inactive) | 1.91 µM (inactive) | 1.72 µM (inactive) | 1.56 µM (inactive) | 0.512 µM (active) | 1.44 µM (inactive)
6 | Cc1nc2ccc(NCCN(C)C)c3c(=O)c4cc(O)ccc4n1c23 | 0.298 µM (active) | 1.21 µM (inactive) | 0.445 µM (active) |  | 0.662 µM (active) | 1.82 µM (inactive) | 0.252 µM (active) | 0.0164 µM (active) | < 0.01 µM (active) | 1.25 µM (inactive) | 0.352 µM (active) | 0.508 µM (active) | 0.733 µM (active) | 1.73 µM (inactive) | 2.56 µM (inactive) | 3.56 µM (inactive) | 1.19 µM (inactive) | 2.49 µM (inactive) | 1.19 µM (inactive) | 
7 | O=c1c2cc(I)ccc2nc(S)n1Cc1ccccc1 | 35.6 µM (inactive) | > 100 µM (inactive) | > 100 µM (inactive) | 16.6 µM (inactive) | 6.84 µM (inactive) | 83.6 µM (inactive) | 17.1 µM (inactive) | > 100 µM (inactive) | 30.7 µM (inactive) | 19.6 µM (inactive) | 18.4 µM (inactive) | 16 µM (inactive) | 15.5 µM (inactive) | 6.17 µM (inactive) | 13.1 µM (inactive) | 11.7 µM (inactive) |  | 0.543 µM (active) | 6.61 µM (inactive) | 5.52 µM (inactive)
8 | COc1ccc(CCCNC(=O)c2cc(OC)c(OC)cc2CCO)cc1OC | > 100 µM (inactive) | > 100 µM (inactive) | > 100 µM (inactive) | > 100 µM (inactive) | > 100 µM (inactive) | > 100 µM (inactive) | > 100 µM (inactive) | > 100 µM (inactive) | > 100 µM (inactive) | > 100 µM (inactive) | > 100 µM (inactive) | > 100 µM (inactive) | > 100 µM (inactive) | > 100 µM (inactive) | > 100 µM (inactive) | > 100 µM (inactive) |  | > 100 µM (inactive) | > 100 µM (inactive) | > 100 µM (inactive)
9 | O=C(O)c1cc([N+](=O)[O-])cc2c(=O)c3cnccc3[nH]c12 | > 100 µM (inactive) | > 100 µM (inactive) | > 100 µM (inactive) | > 100 µM (inactive) | > 100 µM (inactive) | > 100 µM (inactive) | > 100 µM (inactive) | 54.8 µM (inactive) | > 100 µM (inactive) | 65.2 µM (inactive) | > 100 µM (inactive) | > 100 µM (inactive) |  | > 100 µM (inactive) | > 100 µM (inactive) |  | > 100 µM (inactive) | > 100 µM (inactive) | > 100 µM (inactive) | 
10 | CC(=O)NC1(NC(C)=O)C2CC(C1Cc1ccccc1)C(C)(C)C2C (centres undefined) | > 100 µM (inactive) | > 100 µM (inactive) | > 100 µM (inactive) | > 100 µM (inactive) | > 100 µM (inactive) | > 100 µM (inactive) | > 100 µM (inactive) | > 100 µM (inactive) | > 100 µM (inactive) | > 100 µM (inactive) | > 100 µM (inactive) | > 100 µM (inactive) | > 100 µM (inactive) | > 100 µM (inactive) | > 100 µM (inactive) | > 100 µM (inactive) | > 100 µM (inactive) | > 100 µM (inactive) |  | > 100 µM (inactive)
11 | Cc1cccc2c1[nH]c1[nH]c(=O)[nH]c(=O)c12 | > 100 µM (inactive) | > 100 µM (inactive) | > 100 µM (inactive) | > 100 µM (inactive) | > 100 µM (inactive) | > 100 µM (inactive) |  | > 100 µM (inactive) | > 100 µM (inactive) | > 100 µM (inactive) |  | 53.3 µM (inactive) | > 100 µM (inactive) | > 100 µM (inactive) | > 100 µM (inactive) | > 100 µM (inactive) | > 100 µM (inactive) | > 100 µM (inactive) | > 100 µM (inactive) | 83.8 µM (inactive)
12 | CCn1c(=O)c2c3ccc(O)cc3[nH]c2c2ccc(O)cc21 | 83.6 µM (inactive) | 51.2 µM (inactive) | > 100 µM (inactive) | > 100 µM (inactive) |  | 61 µM (inactive) | > 100 µM (inactive) | 39.1 µM (inactive) | 55.6 µM (inactive) | 57 µM (inactive) | 56.8 µM (inactive) | 44.1 µM (inactive) | > 100 µM (inactive) | 30.9 µM (inactive) | 64.4 µM (inactive) | > 100 µM (inactive) | 95.9 µM (inactive) | > 100 µM (inactive) |  | > 100 µM (inactive)
13 | Cc1cccc(CNc2[nH]cnc3nncc2-3)c1 | 47.1 µM (inactive) | 78.3 µM (inactive) | 95.9 µM (inactive) | > 100 µM (inactive) | > 100 µM (inactive) | > 100 µM (inactive) |  | 58.2 µM (inactive) | 43.5 µM (inactive) | > 100 µM (inactive) | > 100 µM (inactive) | > 100 µM (inactive) | > 100 µM (inactive) | 64.4 µM (inactive) | > 100 µM (inactive) | 76.6 µM (inactive) | > 100 µM (inactive) | 47.4 µM (inactive) | 44.3 µM (inactive) | 37.2 µM (inactive)
14 | COc1nn(Cc2ccccc2F)c2ccc([N+](=O)[O-])cc12 | 2.91 µM (inactive) | > 100 µM (inactive) | > 100 µM (inactive) | 7.48 µM (inactive) | 4.28 µM (inactive) | 2.74 µM (inactive) | > 100 µM (inactive) | > 20 µM (inactive) | > 100 µM (inactive) |  | > 100 µM (inactive) | > 45.9 µM (inactive) | 41.1 µM (inactive) | > 100 µM (inactive) | 12.1 µM (inactive) | > 50.6 µM (inactive) | > 85.3 µM (inactive) | > 100 µM (inactive) |  | > 100 µM (inactive)
15 | O=C1CC(c2ccc(Cl)cc2)Oc2ccccc21 (centres undefined) | 4.86 µM (inactive) | 32 µM (inactive) | 27 µM (inactive) |  | 10.7 µM (inactive) | 36.8 µM (inactive) | 25.6 µM (inactive) |  | 8.36 µM (inactive) | 20.6 µM (inactive) | 31.8 µM (inactive) | 15 µM (inactive) | 13.4 µM (inactive) | 14 µM (inactive) | 28.2 µM (inactive) | 40.3 µM (inactive) |  | 18.1 µM (inactive) | 3.96 µM (inactive) | 18.6 µM (inactive)
